Here are results for two compounds from ChEMBL document CHEMBL4725268, “Anticonvulsant and analgesic in neuropathic pain activity in a group of new aminoalkanol derivatives” (Bioorg Med Chem Lett, 2020).

Data set [1] can be described thus: Genotoxicity in Salmonella typhimurium TA98 assessed as mutagenic index at 2.5 ug by AMES test. It counts as toxicity, Salmonella enterica subsp. enterica serovar Typhimurium. Particulars: in vivo; dose 2.5 µg.
A short description of data set [2]: Genotoxicity in Salmonella typhimurium TA98 assessed as number of revertant at 2.5 ug by AMES test (reference value: 8 to 8.3). The settings on record: in vivo; dose 2.5 µg. It counts as toxicity, Salmonella enterica subsp. enterica serovar Typhimurium.
Data set [3] is described as follows: Genotoxicity in Salmonella typhimurium TA100 assessed as number of revertant at 200 ug by AMES test (reference value: 64.3 to 130.7). The class given is toxicity, Salmonella enterica subsp. enterica serovar Typhimurium. Particulars: in vivo; dose 200 µg.
The subject of data set [4] is Escherichia coli. Put plainly: Antimicrobial activity against Escherichia coli ATCC 35218 assessed as reduction in bacterial growth at 0.195 to 100 ug/ml by serial dilution method. The class given is organism-based. The settings on record: in vivo, dose 0.195-100 µg/ml.
Data set [5] deals with T1, 5-hydroxytryptamine receptor 1A (Homo sapiens) (UniProt P08908).
T1 sequence (whole entry): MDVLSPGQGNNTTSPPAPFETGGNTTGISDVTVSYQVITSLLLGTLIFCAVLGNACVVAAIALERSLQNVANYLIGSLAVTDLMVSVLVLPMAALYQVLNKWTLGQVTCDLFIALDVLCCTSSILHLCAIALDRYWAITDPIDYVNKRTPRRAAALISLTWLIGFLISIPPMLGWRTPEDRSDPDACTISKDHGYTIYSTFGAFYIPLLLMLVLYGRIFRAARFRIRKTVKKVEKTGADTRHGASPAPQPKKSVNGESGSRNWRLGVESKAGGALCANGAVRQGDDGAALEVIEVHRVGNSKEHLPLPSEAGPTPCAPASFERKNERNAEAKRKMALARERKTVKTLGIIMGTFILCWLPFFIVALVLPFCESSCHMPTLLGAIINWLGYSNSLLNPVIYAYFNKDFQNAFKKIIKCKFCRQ
Description: Binding affinity to 5-HT1A (unknown origin) at 10^-5 M. Particulars: dose 1.0 10^-5M.

The nature of data set [6]: Genotoxicity in Salmonella typhimurium TA98 assessed as mutagenic index at 200 ug by AMES test. It counts as toxicity, Salmonella enterica subsp. enterica serovar Typhimurium. The settings on record: in vivo; dose 200 µg.
A short description of data set [7]: Genotoxicity in Salmonella typhimurium TA98 assessed as mutagenic index at 500 ug by AMES test. It counts as toxicity, Salmonella enterica subsp. enterica serovar Typhimurium. The settings on record: in vivo; dose 500 µg.
The nature of data set [8]: Toxicity in mouse assessed as lethality at 10 mg/kg, ip. It counts as organism-based. The settings on record: in vivo.
In a further data set the test system is Bacteroides fragilis. Put plainly: Antimicrobial activity against Bacteroides fragilis ATCC 25285 assessed as reduction in bacterial growth at 0.195 to 100 ug/ml by disk diffusion method. The class given is organism-based. The settings on record: in vivo, dose 0.195-100 µg/ml.
Data set [9] in a line: Genotoxicity in Salmonella typhimurium TA100 assessed as mutagenic index at 1000 ug by AMES test. The class given is toxicity, Salmonella enterica subsp. enterica serovar Typhimurium. The settings on record: in vivo; dose 1000 µg.
Another data set concerns Salmonella enterica. Put plainly: Antimicrobial activity against Salmonella enterica ATCC 51957 assessed as reduction in bacterial growth at 0.195 to 100 ug/ml by serial dilution method. It counts as organism-based. The settings on record: in vivo, dose 0.195-100 µg/ml.
Data set [10] can be described thus: Toxicity in ip dosed mouse assessed as motor impairment by rotarod test. It counts as organism-based. Particulars: in vivo.
Data set [11] can be described thus: Genotoxicity in Salmonella typhimurium TA98 assessed as mutagenic index at 75 ug by AMES test. Particulars: in vivo; dose 75 µg. The class given is toxicity, Salmonella enterica subsp. enterica serovar Typhimurium.
Data set [12] can be described thus: Genotoxicity in Salmonella typhimurium TA100 assessed as number of revertant at 10 ug by AMES test (reference value: 64.3 to 130.7). The class given is toxicity, Salmonella enterica subsp. enterica serovar Typhimurium. The settings on record: in vivo; dose 10 µg.
Data set [13] has as its system Mus musculus. Put plainly: Antiallodynic activity in mouse model of OXA-induced peripheral neuropathy assessed as mean paw withdrawal threshold at 18 mg/kg, ip administered after 7 days of OXA stimulation and measured after 1 hr by Von-frey method (reference value: 3.192 +/- 0.181 g). The class given is functional.
A further data set has as its system Hoylesella loescheii. Description: Antimicrobial activity against Prevotella loescheii ATCC 15930 assessed as reduction in bacterial growth at 0.195 to 100 ug/ml by disk diffusion method. It counts as organism-based, DSM 19665 = JCM 12249 = ATCC 15930. Particulars: in vivo, dose 0.195-100 µg/ml.
The nature of data set [14]: Antioxidant activity assessed as DPPH radical scavenging activity at 125 to 1000 uM by microplate method. Particulars: dose microM 125-1000. The class given is functional. A general note: The DPPH test is a chemical assay of radical scavenging.
The subject of data set [15] is Staphylococcus aureus. Put plainly: Antimicrobial activity against clinical strain Staphylococcus aureus assessed as reduction in bacterial growth at 0.195 to 100 ug/ml by serial dilution method. The class given is organism-based. Particulars: in vivo, dose 0.195-100 µg/ml.
Data set [16] is described as follows: Genotoxicity in Salmonella typhimurium TA100 assessed as number of revertant at 75 ug by AMES test (reference value: 64.3 to 130.7). The class given is toxicity, Salmonella enterica subsp. enterica serovar Typhimurium. The settings on record: in vivo; dose 75 µg.
Data set [17] can be described thus: Genotoxicity in Salmonella typhimurium TA100 assessed as mutagenic index at 500 ug by AMES test. The class given is toxicity, Salmonella enterica subsp. enterica serovar Typhimurium. Particulars: in vivo; dose 500 µg.
Data set [18] can be described thus: Genotoxicity in Salmonella typhimurium TA98 assessed as number of revertant at 200 ug by AMES test (reference value: 8 to 8.3). The settings on record: in vivo; dose 200 µg. It counts as toxicity, Salmonella enterica subsp. enterica serovar Typhimurium.
The nature of data set [19]: Antimicrobial activity against clinical strain Bifidobacterium assessed as reduction in bacterial growth at 0.195 to 100 ug/ml by disk diffusion method. Particulars: dose 0.195-100 µg/ml. (In general: Agar diffusion results depend on both activity and mobility in agar.)
The test system of data set [20] is Escherichia coli. Put plainly: Antimicrobial activity against Escherichia coli ATCC 25922 assessed as reduction in bacterial growth at 0.195 to 100 ug/ml by serial dilution method. It counts as organism-based. Particulars: in vivo, dose 0.195-100 µg/ml.
Data set [21] concerns Mus musculus. Description: Anticonvulsant activity in ip dosed mouse assessed as protection against current-induced seizure by maximal electroshock seizure test. The class given is functional. (In general: The maximal electroshock test induces tonic seizures with an electrical stimulus.)
Data set [22] relates to Staphylococcus aureus. Description: Antimicrobial activity against Staphylococcus aureus ATCC 25923 assessed as reduction in bacterial growth at 0.195 to 100 ug/ml by serial dilution method. The class given is organism-based. The settings on record: in vivo, dose 0.195-100 µg/ml.
The subject of data set [23] is Mus musculus. Description: Antiallodynic activity in mouse model of OXA-induced peripheral neuropathy assessed as mean latency time to nocifensive response at 18 mg/kg, ip administered after 3 hrs of OXA stimulation and measured after 1 hr by cold plate method (reference value: 59.76 +/- 0.16 sec). The class given is functional.
Data set [24] is described as follows: Genotoxicity in Salmonella typhimurium TA100 assessed as mutagenic index at 75 ug by AMES test. The class given is toxicity, Salmonella enterica subsp. enterica serovar Typhimurium. Particulars: in vivo; dose 75 µg.
The subject of the next data set is Enterococcus faecalis. Put plainly: Antimicrobial activity against Enterococcus faecalis ATCC 29212 assessed as reduction in bacterial growth at 0.195 to 100 ug/ml by serial dilution method. It counts as organism-based. Particulars: in vivo, dose 0.195-100 µg/ml.
The nature of data set [25]: Genotoxicity in Salmonella typhimurium TA98 assessed as mutagenic index at 10 ug by AMES test. Particulars: in vivo; dose 10 µg. It counts as toxicity, Salmonella enterica subsp. enterica serovar Typhimurium.
Data set [26] in a line: Genotoxicity in Salmonella typhimurium TA98 assessed as mutagenic index at 750 ug by AMES test. The settings on record: in vivo; dose 750 µg. It counts as toxicity, Salmonella enterica subsp. enterica serovar Typhimurium.
Data set [27] relates to Mus musculus. Put plainly: Antiallodynic activity in mouse model of OXA-induced peripheral neuropathy assessed as mean paw withdrawal threshold at 18 mg/kg, ip administered after 3 hrs of OXA stimulation and measured after 1 hr by Von-frey method (reference value: 3.144 +/- 0.169 g). The class given is functional.
Data set [28] can be described thus: Genotoxicity in Salmonella typhimurium TA100 assessed as number of revertant at 500 ug by AMES test (reference value: 64.3 to 130.7). The class given is toxicity, Salmonella enterica subsp. enterica serovar Typhimurium. The settings on record: in vivo; dose 500 µg.
The nature of data set [29]: Genotoxicity in Salmonella typhimurium TA100 assessed as mutagenic index at 200 ug by AMES test. The class given is toxicity, Salmonella enterica subsp. enterica serovar Typhimurium. The settings on record: in vivo; dose 200 µg.
Data set [30] has as its system Mus musculus. Put plainly: Antiallodynic activity in mouse model of OXA-induced peripheral neuropathy assessed as mean latency time to nocifensive response at 18 mg/kg, ip administered after 7 days of OXA stimulation and measured after 1 hr by cold plate method (reference value: 57.64 +/- 1.267 sec). It counts as functional.
Data set [31] is described as follows: Genotoxicity in Salmonella typhimurium TA98 assessed as number of revertant at 10 ug by AMES test (reference value: 8 to 8.3). The class given is toxicity, Salmonella enterica subsp. enterica serovar Typhimurium. Particulars: in vivo; dose 10 µg.
A short description of data set [32]: Genotoxicity in Salmonella typhimurium TA100 assessed as number of revertant at 1000 ug by AMES test (reference value: 64.3 to 130.7). It counts as toxicity, Salmonella enterica subsp. enterica serovar Typhimurium. The settings on record: in vivo; dose 1000 µg.
A short description of data set [33]: Genotoxicity in Salmonella typhimurium TA98 assessed as number of revertant at 500 ug by AMES test (reference value: 8 to 8.3). It counts as toxicity, Salmonella enterica subsp. enterica serovar Typhimurium. Particulars: in vivo; dose 500 µg.
Data set [34] in a line: Genotoxicity in Salmonella typhimurium TA98 assessed as number of revertant at 750 ug by AMES test (reference value: 8 to 8.3). The settings on record: in vivo; dose 750 µg. The class given is toxicity, Salmonella enterica subsp. enterica serovar Typhimurium.
A short description of data set [35]: Protection index, ratio of TD50 for toxicity in ip dosed mouse to ED50 for anticonvulsant activity in ip dosed mouse. It counts as organism-based. Particulars: in vivo, read-out: PI.
A short description of data set [36]: Genotoxicity in Salmonella typhimurium TA98 assessed as number of revertant at 75 ug by AMES test (reference value: 8 to 8.3). The class given is toxicity, Salmonella enterica subsp. enterica serovar Typhimurium. The settings on record: in vivo; dose 75 µg.
The nature of data set [37]: Genotoxicity in Salmonella typhimurium TA100 assessed as mutagenic index at 10 ug by AMES test. It counts as toxicity, Salmonella enterica subsp. enterica serovar Typhimurium. The settings on record: in vivo; dose 10 µg.
A further data set has as its system Clostridioides difficile. Put plainly: Antimicrobial activity against clinical strain Clostridium difficile assessed as reduction in bacterial growth at 0.195 to 100 ug/ml by disk diffusion method. The class given is organism-based. The settings on record: in vivo, dose 0.195-100 µg/ml.

Activity calls are given as the source filed them.

As for `Nc1ccc([N+](=O)[O-])cc1N`, in data set [1], the Activity_index was determined as 62.3. In data set [2], the Activity stood at 519.
Take `Cc1cc(C)c(C)c(OCCCN2CCC(O)CC2)c1`: the Activity is 42 in [3]; “Non-Toxic” with Escherichia coli [4]; “Non-Toxic” in data set [8]; “Non-Toxic” in the data set on Bacteroides fragilis; “Non-Toxic” with Salmonella enterica; 66 in [12]. In addition, the Activity in the data set on Mus musculus [13] was 2.027 g; in the data set on Hoylesella loescheii it was “Non-Toxic”; with Staphylococcus aureus [15], “Non-Toxic”; in [16] it was 52.3; in data set [18], 11; in data set [19] it was “Non-Toxic”. For the same compound, the Activity entry is listed as “Non-Toxic” in the data set with Escherichia coli [20]; “Non-Toxic” in the data set on Staphylococcus aureus [22]; “Non-Toxic” in the data set on Enterococcus faecalis; 1.921 g in the data set on Mus musculus [27]; 944 in data set [28]; 12 in data set [31]. Further, the Activity in [32] is reported as 1190; in [33] it was 6.7; in [34], 364.3; in data set [36], 15.3; with Clostridioides difficile, “Non-Toxic”. For the same compound, the result in [5] and in [14] was inactive. Moreover, the Activity_index is listed as 1.3 in data set [6]; 0.8 in data set [7]; 18.5 in [9]; 1.8 in [11]; 14.7 in data set [17]; 0.8 in data set [24]. The Activity_index is 1.4 in data set [25], 43.7 in data set [26], 0.7 in data set [29] and 1 in data set [37]. Moreover, in [10], the TD50 is 63.4 mg/kg. Besides, the ED50 in the data set on Mus musculus [21] was found to be 17.7 mg/kg. In addition, the Time was determined as 15.167 s with Mus musculus [23] and 8.833 s in the data set with Mus musculus [30]. Further, the selectivity ratio in [35] turned out to be 3.58.

Usually TD50 stands for the 50% point of the dose-response relation for the toxic effect studied. By ED50 is commonly meant the dose that gives a 50% effect, or the effect in half of the subjects.
